The results in this text go back to article PMC7180134 (Angewandte Chemie (International ed. in English), 2020).

This assay deals with T1, human NTH1 (hNTH1, endonuclease III-like protein 1) (Homo sapiens, UniProt P78549).
T1 sequence (P78549 23-304): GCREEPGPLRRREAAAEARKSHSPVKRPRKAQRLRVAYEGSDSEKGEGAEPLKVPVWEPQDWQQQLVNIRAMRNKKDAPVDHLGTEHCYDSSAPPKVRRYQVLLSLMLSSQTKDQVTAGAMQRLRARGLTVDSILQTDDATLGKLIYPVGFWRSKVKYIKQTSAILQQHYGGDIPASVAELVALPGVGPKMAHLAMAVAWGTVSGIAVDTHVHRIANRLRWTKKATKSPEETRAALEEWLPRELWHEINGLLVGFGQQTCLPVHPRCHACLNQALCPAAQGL
The assay is classed as biochemical.

On to `Nc1ncnc2c1c(-c1cccc(OCc3ccccc3)c1)cn2[C@H]1C[C@@H](CN2CCC2)C1` [NVP-AEW541], for which 780 nM corresponded to half-maximal inhibition (IC50).
